The values that follow come from BindingDB's records for doi:10.1021/jm00101a032 (Pfizer, 1992).

A word on the IC50: it is the point on the concentration scale where inhibition reaches its midpoint. A high value points to weaker potency. For orientation: EC50 means the concentration needed to bring the measured effect to its halfway point.

Experiment [1] is described as follows: Binding affinity against 5-hydroxytryptamine 1A receptor.
A short description of experiment [2]: Effect on forskolin stimulated adenylate cyclase activity at 5-hydroxytryptamine 1A receptor of guinea pig hippocampus.
Experiment in experiment [3]: as above
This is another data set of the same source.

On to `COc1ccc2[nH]cc(C[C@H]3CCCN3C)c2c1` [5-Methoxy-3-((R)-1-methyl-pyrrolidin-2-ylmethyl)-1H-indole], for which, in experiment [1], the IC50 turned out to be 10 nM. In addition, the midpoint of the response in experiment [2], the EC50, lay at 35 nM.

With `COc1ccc2[nH]cc(C[C@@H]3CCCN3C)c2c1` [5-Methoxy-3-((S)-1-methyl-pyrrolidin-2-ylmethyl)-1H-indole], in experiment [3], the midpoint of inhibition, the IC50, lay at 140 nM. This counts as sub-micromolar.
